Results taken from ChEMBL document CHEMBL1132411, “Bis- and mixed-tetrahydroisoquinolinium chlorofumarates: new ultra-short-acting nondepolarizing neuromuscular blockers” (1999).

Tests used:
Type in all cases: functional, Cercopithecidae
Monkey [1] = assay: Compound was evaluated for the dose producing 95% suppression of the twitch response in male Rhesus Monkey.
Monkey [2] = assay: Compound was evaluated for the time from injection to recovery of the twitch to 95% of baseline at the ED95 dose
Monkey [3] = assay: Compound was evaluated for the time from injection to peak inhibition of the twitch response at the ED95 dose
Monkey [4] = assay: Compound was evaluated for the time from injection to recovery of the twitch to 95% of baseline at 0.2 mg/kg dose
Monkey [5] = assay: Compound was evaluated for the time from injection to recovery of the twitch to 95% of baseline at 0.4 mg/kg dose
Monkey [6] = assay: Compound was evaluated for the time from injection to peak inhibition of the twitch response at 0.2 mg/kg dose
Monkey [7] = assay: Compound was evaluated for the time from injection to peak inhibition of the twitch response at 0.4 mg/kg dose
[8] = Cercopithecidae, in Macaca mulatta, read-out: ED95

Row | SMILES | ED95 (Monkey [1]; [8]) [mg/kg] | Duration (Monkey [2]) [min] | Onset (Monkey [3]) [s] | other results
1 | COc1cc2c(cc1OC)[C@@H](c1cc(OC)c(OC)c(OC)c1)[N@+](C)(CCCOC(=O)/C(Cl)=C/C(=O)OCCC[N@+]1(C)CCc3cc(OC)c(OC)cc3[C@H]1Cc1cc(OC)c(OC)c(OC)c1)CC2.[Cl-].[Cl-] | 0.31 | 3.7 | 37 | 
2 | COc1cc2c(cc1OC)[C@H](c1cc(OC)c(OC)c(OC)c1)[N@@+](C)(CCCOC(=O)/C=C(\Cl)C(=O)OCCC[N@@+]1(C)CCc3cc(OC)c(OC)cc3[C@@H]1c1cc(OC)c(OC)c(OC)c1)CC2.[Cl-].[Cl-] | 8.5 | 11.2 | 55 | 
3 | COc1cc2c(cc1OC)[C@@H](Cc1cc(OC)c(OC)c(OC)c1)[N@+](C)(CCCOC(=O)/C=C(\Cl)C(=O)OCCC[N@+]1(C)CCc3cc(OC)c(OC)cc3[C@H]1Cc1cc(OC)c(OC)c(OC)c1)CC2.[Cl-].[Cl-] | 0.109 | 8.7 | 73 | Duration (Monkey [4]): 9.78 min; Duration (Monkey [5]): 13.4 min; Onset (Monkey [6]): 36 s; Onset (Monkey [7]): 23 s
4 | COc1cc2c(cc1OC)[C@H](c1cc(OC)c(OC)c(OC)c1)[N@@+](C)(CCCOC(=O)/C(Cl)=C/C(=O)OCCC[N@+]1(C)CCc3cc(OC)c(OC)cc3[C@H]1Cc1cc(OC)c(OC)c(OC)c1)CC2.[Cl-].[Cl-] | 0.25 | 3.4 | 52 | 
5 | COc1cc2c(cc1OC)[C@@H](c1cc(OC)c(OC)c(OC)c1)[N@+](C)(CCCOC(=O)/C=C/C(=O)OCCC[N@+]1(C)CCc3cc(OC)c(OC)cc3[C@H]1c1cc(OC)c(OC)c(OC)c1)CC2.[Cl-].[Cl-] | 1.55 | 25.5 | 144 | 
6 | COc1cc2c(cc1OC)[C@@H](c1cc(OC)c(OC)c(OC)c1)[N@+](C)(CCCOC(=O)/C=C(\Cl)C(=O)OCCC[N@+]1(C)CCc3cc(OC)c(OC)cc3[C@H]1c1cc(OC)c(OC)c(OC)c1)CC2.[Cl-].[Cl-] | 1.79 | 5.1 | 46 | 
7 | COc1cc2c(cc1OC)[C@H](c1cc(OC)c(OC)c(OC)c1)[N@@+](C)(CCCOC(=O)/C=C(\Cl)C(=O)OCCC[N@+]1(C)CCc3cc(OC)c(OC)cc3[C@H]1Cc1cc(OC)c(OC)c(OC)c1)CC2.[Cl-].[Cl-] (stereo in doubt; 6a) [GANTACURIUM CHLORIDE] |  |  | 88 | Duration (Monkey [4]; 0.2 mg/kg): 8.46 min; Duration (Monkey [5]; 0.4 mg/kg): 10 min; ED95 (Monkey [1]): 0.063 mg/kg; Onset (Monkey [6]; 0.2 mg/kg): 38 s; Onset (Monkey [7]; 0.4 mg/kg): 25 s
8 | COc1cc2c(cc1OC)[C@H](c1cc(OC)c(OC)c(OC)c1)[N@@+](C)(CCCOC(=O)/C=C(\Cl)C(=O)OCCC[N@+]1(C)CCc3cc(OC)c(OC)cc3[C@H]1Cc1cc(OC)c(OC)c(OC)c1)CC2.[Cl-].[Cl-] (stereo in doubt; 6ab) [GANTACURIUM CHLORIDE] |  | 5.6 | 51 | Duration (Monkey [4]; 0.2 mg/kg): 7.1 min; Duration (Monkey [5]; 0.4 mg/kg): 8.7 min; ED95 (Monkey [1]): 0.163 mg/kg; Onset (Monkey [6]; 0.2 mg/kg): 44 s; Onset (Monkey [7]; 0.4 mg/kg): 27 s
9 | COc1cc2c(cc1OC)[C@@H](Cc1cc(OC)c(OC)c(OC)c1)[N+](C)(CCCOC(=O)CC/C=C/CCC(=O)OCCC[N+]1(C)CCc3cc(OC)c(OC)cc3[C@H]1Cc1cc(OC)c(OC)c(OC)c1)CC2.[Cl-].[Cl-] (stereo partly specified) [MIVACURIUM CHLORIDE] | 0.062 | 12 | 107 | 
10 | C[N+](C)(C)CCOC(=O)CCC(=O)OCC[N+](C)(C)C.[Cl-].[Cl-] [SUCCINYLCHOLINE CHLORIDE] | 1.29 | 5 | 50 | 
